Data on six compounds can be found in ChEMBL document CHEMBL2331138, “Isolation and structures of axistatins 1-3 from the Republic of Palau marine sponge Agelas axifera Hentschel ” (2013).

One test relates to P388. Briefly: Growth inhibition of mouse P388 cells after 48 hrs by Z1 Coulter particle counting. Format: functional. Particulars: P388, 48 h, read-out: ED50 (the source's name).
In test [1] the test system is Cryptococcus neoformans. Nature of the test: Antimicrobial activity against Cryptococcus neoformans ATCC 90112 by NCCLS broth microdilution assay. Format: functional.
Test [2] concerns Enterococcus faecalis. Briefly: Antimicrobial activity against Enterococcus faecalis ATCC 29212 by NCCLS broth microdilution assay. The test is classed as functional.
For a further test, the system named is MCF7. Briefly: Growth inhibition of human MCF7 cells after 48 hrs by SRB assay. The test is classed as functional. Particulars: MCF7, 48 h.
The test system of the next test is DU-145. Nature of the test: Growth inhibition of human DU145 cells after 48 hrs by SRB assay. Format: functional. Particulars: DU-145, 48 h.
Test [3] concerns Micrococcus luteus. Briefly: Antimicrobial activity against Micrococcus luteus Presque Isle 456 by NCCLS broth microdilution assay. The test is classed as functional.
For the next test, the system named is NCI-H460. Briefly: Growth inhibition of human NCI-H460 cells after 48 hrs by SRB assay. The test is classed as functional. Particulars: NCI-H460, 48 h.
The next test relates to BXPC-3. Nature of the test: Growth inhibition of human BxPC3 cells after 48 hrs by SRB assay. Format: functional. Particulars: BXPC-3, 48 h.
For test [4], the system named is Stenotrophomonas maltophilia. Briefly: Antimicrobial activity against Stenotrophomonas maltophilia ATCC 13637 assessed as growth inhibition at 64 ug/mL by NCCLS broth microdilution assay. The test is classed as functional, organism-based.
The test system of test [5] is Enterobacter cloacae. Nature of the test: Antimicrobial activity against Enterobacter cloacae ATCC 13047 assessed as growth inhibition at 64 ug/mL by NCCLS broth microdilution assay. The test is classed as functional, organism-based.
The test system of test [6] is Streptococcus pneumoniae. Briefly: Antimicrobial activity against Streptococcus pneumoniae ATCC 6303 by NCCLS broth microdilution assay. The test is classed as functional.
Test [7] relates to Escherichia coli. Nature of the test: Antimicrobial activity against Escherichia coli ATCC 25922 assessed as growth inhibition at 64 ug/mL by NCCLS broth microdilution assay. Format: functional, organism-based.
For the next test, the system named is SF-268. Nature of the test: Growth inhibition of human SF268 cells after 48 hrs by SRB assay. To be noted: SF-268, 48 h. Format: functional.
Test [8] has as its system Neisseria gonorrhoeae. Nature of the test: Antimicrobial activity against Neisseria gonorrhoeae ATCC 49226 by NCCLS broth microdilution assay. The test is classed as functional.
Test [9] concerns Candida albicans. Briefly: Antimicrobial activity against Candida albicans ATCC 90028 assessed as growth inhibition at 64 ug/mL by NCCLS broth microdilution assay. The test is classed as functional, organism-based.
The subject of test [10] is Staphylococcus aureus. Nature of the test: Antimicrobial activity against Staphylococcus aureus ATCC 29213 by NCCLS broth microdilution assay. Format: functional.
The next test relates to KM-20L2. Briefly: Growth inhibition of human KM20L2 cells after 48 hrs by SRB assay. Particulars: KM-20L2, 48 h. Format: functional.
For test [11], the system named is Cryptococcus neoformans. Nature of the test: Antimicrobial activity against Cryptococcus neoformans ATCC 90112 assessed as growth inhibition at 64 ug/mL by NCCLS broth microdilution assay. The test is classed as functional, organism-based.
Test [12] has as its system Enterococcus faecalis. Nature of the test: Antimicrobial activity against Enterococcus faecalis ATCC 29212 assessed as growth inhibition at 64 ug/mL by NCCLS broth microdilution assay. Format: functional, organism-based.
The subject of test [13] is Neisseria gonorrhoeae. Briefly: Antimicrobial activity against Neisseria gonorrhoeae ATCC 49226 assessed as growth inhibition at 64 ug/mL by NCCLS broth microdilution assay. Format: functional, organism-based.
Test [14] deals with Staphylococcus aureus. Briefly: Antimicrobial activity against Staphylococcus aureus ATCC 29213 assessed as growth inhibition at 64 ug/mL by NCCLS broth microdilution assay. The test is classed as functional, organism-based.
Test [15] deals with Micrococcus luteus. Briefly: Antimicrobial activity against Micrococcus luteus Presque Isle 456 assessed as growth inhibition at 64 ug/mL by NCCLS broth microdilution assay. The test is classed as functional, organism-based.
Test [16] relates to Streptococcus pneumoniae. Nature of the test: Antimicrobial activity against Streptococcus pneumoniae ATCC 6303 assessed as growth inhibition at 64 ug/mL by NCCLS broth microdilution assay. Format: functional, organism-based.
Test [17] relates to Stenotrophomonas maltophilia. Briefly: Antimicrobial activity against Stenotrophomonas maltophilia ATCC 13637 by NCCLS broth microdilution assay. The test is classed as functional.
Test [18] relates to Enterobacter cloacae. Nature of the test: Antimicrobial activity against Enterobacter cloacae ATCC 13047 by NCCLS broth microdilution assay. The test is classed as functional.
In test [19] the test system is Candida albicans. Briefly: Antimicrobial activity against Candida albicans ATCC 90028 by NCCLS broth microdilution assay. Format: functional.
Test [20] concerns Escherichia coli. Briefly: Antimicrobial activity against Escherichia coli ATCC 25922 by NCCLS broth microdilution assay. The test is classed as functional.

Converted amounts (≈) assume the structure as drawn. The source made the active and inactive calls. No cut-off for these calls is given here.

With `CNc1ncnc(N)c1N(C=O)C/C=C(\C)CC[C@@]1(C)[C@H](C)CC[C@@]2(C)C(C)=CCC[C@H]12` [AXISTATIN 2], the EC50 in the test with P388 was more than 22.8 µM. In addition, the MIC stood at 2 µg/mL (≈ 4.55 µM) in the test on Cryptococcus neoformans [1]; 1 µg/mL (≈ 2.27 µM) with Enterococcus faecalis [2]; 1 µg/mL (≈ 2.27 µM) in the test with Micrococcus luteus [3]; 8 µg/mL (≈ 18.2 µM) against Streptococcus pneumoniae [6]; 2 µg/mL (≈ 4.55 µM) in the test with Neisseria gonorrhoeae [8]; 1 µg/mL (≈ 2.27 µM) in the test on Staphylococcus aureus [10]. In addition, the GI50 with MCF7 stood at 6.8 µM; with DU-145 it was 5 µM; with NCI-H460, 4.3 µM; with BXPC-3, 5.5 µM; with SF-268, 3.9 µM; with KM-20L2, 4.1 µM. In addition, the “growth inhibition (GI)” value (in test [4]; in the test with Enterobacter cloacae [5]; with Escherichia coli [7]; in the test on Candida albicans [9]) was “inactive” in each case.

Turning to `CNc1ncnc(N)c1N(C=O)C/C=C(\C)CC[C@]1(C)[C@@H](C)CC[C@@]2(C)C(COC(=O)c3ccc[nH]3)=CCC[C@@H]12`, the EC50 with P388 is more than 18.2 µM. Further, the “growth inhibition (GI)” value (in the test on Cryptococcus neoformans [11]; in the test on Enterococcus faecalis [12]; in the test on Neisseria gonorrhoeae [13]; with Staphylococcus aureus [14]; in the test with Micrococcus luteus [15]; in test [4]) was “inactive” each time. Also, the “growth inhibition (GI)” value with Enterobacter cloacae [5], in the test on Streptococcus pneumoniae [16], in the test on Escherichia coli [7] and with Candida albicans [9] was “inactive” each time. Also, the GI50 with MCF7 is 3.1 µM; in the test on DU-145, 4.6 µM; in the test on NCI-H460 it was 3.6 µM; with BXPC-3, 4 µM; with SF-268, 3.1 µM; in the test on KM-20L2, 2.9 µM.

Take `CNc1ncnc(N)c1N(C=O)C/C=C(\C)CC[C@]1(C)[C@@H](C)CC[C@@]2(C)C(C)=CCC[C@@H]12` [AXISTATIN 1]: the EC50 in the test with P388 came out at 19.8 µM. Also, the MIC against Cryptococcus neoformans [1] stood at 1 µg/mL (≈ 2.27 µM); in the test on Enterococcus faecalis [2], 1 µg/mL (≈ 2.27 µM); against Micrococcus luteus [3], 1 µg/mL (≈ 2.27 µM); in the test with Streptococcus pneumoniae [6], 8 µg/mL (≈ 18.2 µM); against Neisseria gonorrhoeae [8], 1 µg/mL (≈ 2.27 µM); in the test on Staphylococcus aureus [10], 1 µg/mL (≈ 2.27 µM). Besides, the GI50 was determined as 5.7 µM in the test with MCF7; 4.8 µM in the test on DU-145; 4.6 µM in the test on NCI-H460; 4.8 µM in the test on BXPC-3; 3.6 µM with SF-268; 4.1 µM in the test with KM-20L2. Besides, the “growth inhibition (GI)” value (in test [4]; in the test with Enterobacter cloacae [5]; in the test on Escherichia coli [7]; in the test with Candida albicans [9]) was “inactive” throughout.

Take `CNc1ncnc(NC(C)C)c1N(C=O)C/C=C(\C)CC/C=C(\C)CC[C@@]1(C)C(C)=CCC[C@@H]1C` [AXISTATIN 3]: the EC50 in the test on P388 stood at 8.9 µM. Further, the MIC came out at 8 µg/mL (≈ 16.6 µM) in the test on Cryptococcus neoformans [1]; 8 µg/mL (≈ 16.6 µM) in the test on Enterococcus faecalis [2]; 8 µg/mL (≈ 16.6 µM) against Micrococcus luteus [3]; 32 µg/mL (≈ 66.4 µM) in the test on Streptococcus pneumoniae [6]; 8 µg/mL (≈ 16.6 µM) against Neisseria gonorrhoeae [8]; 4 µg/mL (≈ 8.3 µM) with Staphylococcus aureus [10]. For the same compound, the GI50 came out at 5.8 µM in the test on MCF7; 7.5 µM in the test with DU-145; 5.4 µM with NCI-H460; 6 µM with BXPC-3; 3.5 µM with SF-268; 6.9 µM with KM-20L2. Further, the “growth inhibition (GI)” value (in test [4]; with Enterobacter cloacae [5]; in the test with Escherichia coli [7]; in the test with Candida albicans [9]) was “inactive” each time.

In the case of `CNc1ncnc(N)c1N(C=O)C/C=C(\C)CC/C=C(\C)CC[C@@]1(C)C(C)=CCC[C@@H]1C`, the EC50 in the test with P388 amounted to 15.7 µM. Moreover, the MIC against Enterococcus faecalis [2] was 8 µg/mL (≈ 18.2 µM); against Micrococcus luteus [3] it was 4 µg/mL (≈ 9.1 µM); in the test with Streptococcus pneumoniae [6], 32 µg/mL (≈ 72.8 µM); in the test with Neisseria gonorrhoeae [8], 16 µg/mL (≈ 36.4 µM); in the test with Staphylococcus aureus [10], 8 µg/mL (≈ 18.2 µM). Besides, the “growth inhibition (GI)” value (in the test with Cryptococcus neoformans [11]; in test [4]; in the test with Enterobacter cloacae [5]; with Escherichia coli [7]; in the test with Candida albicans [9]) was “inactive” each time. The GI50 with MCF7 was determined as 5.9 µM; in the test with DU-145, 6.8 µM; in the test with NCI-H460 it was 6.8 µM; in the test with BXPC-3, 5.9 µM; with SF-268 it was 3.9 µM; in the test with KM-20L2 it was 7.1 µM.

For the compound `CC1=CCC[C@H](C)[C@@]1(C)CC/C(C)=C/CC/C(C)=C/Cn1c[n+](C)c2ncnc(N)c21.[Cl-]` [AGELINE A], the EC50 with P388 was more than 21.8 µM. Further, the MIC in [17] is 16 µg/mL; in the test on Cryptococcus neoformans [1], 2 µg/mL; in the test on Enterococcus faecalis [2] it was 2 µg/mL; in the test on Enterobacter cloacae [18], 32 µg/mL; in the test with Micrococcus luteus [3] it was less than 0.5 µg/mL; in the test on Candida albicans [19], 4 µg/mL. For the same compound, the MIC in the test with Escherichia coli [20] turned out to be 32 µg/mL; against Streptococcus pneumoniae [6], 16 µg/mL; in the test on Neisseria gonorrhoeae [8], 2 µg/mL; against Staphylococcus aureus [10], 2 µg/mL. In addition, the GI50 is 3.9 µM in the test with MCF7; 4.2 µM in the test on DU-145; 3.7 µM with NCI-H460; 3.5 µM with BXPC-3; 3.5 µM in the test with SF-268; 3.5 µM in the test with KM-20L2.
